Laboratory results as given in US9723838B2, “Pyrazolyl amide compounds and uses thereof” (SHENYANG SINOCHEM AGROCHEMICALS R&D CO., LTD., priority 2013, dated 2017).
Like-named read-outs stand apart in the source and are kept apart here.

How the values were obtained:
green peach aphid = assay: Test against green peach aphid (spraying); type: in vivo; details: for mortality at 2.5 ppm / mortality at 5 ppm / mortality at 10 ppm / mortality at 100 ppm / mortality at 600 ppm: Myzus persicae; for mortality at 100 ppm / mortality at 600 ppm: read-out: mortality against green peach aphid; for Mortality (%): parallel test
Experimental: According to the solubility of test compounds, the compounds are dissolved in acetone or dimethyl sulfoxide, and then diluted with 0.1% aqueous solution of Tween 80 to form the test liquid 50 ml, the content of acetone or dimethyl sulfoxide in the total solution is not more than 10%.
The 6 cm diameter Petri dish with a layer of filter paper was chosen, a moderate amount of water was added to preserve moisture. A suitable piece of cabbage leaf with 30-50 green peach aphids was excised from a culture plant. Remove the winged and positive aphids, the leaf was placed to the Petri dish above with back upward. The test compounds were sprayed on both sides of the leaf by Airbrush (spray pressure: 10 psi, equate to 0.7 kg/cm^2; spray volume: 0.5 mL; spray distance: 15-20 cm). The treated Petri dishes were placed in a chamber of 23-25° C., 40%-60% relative humidity, L/D 13 h: 11 h. To keep the leaf fresh, a moderate amount of water was added to the Petri dish during the observation. After 48 h, the number of surviving insects was investigated and the mortality rates were calculated.

diamondback moth = assay: Test against diamondback moth (leaf disc spraying); type: in vivo; details: for mortality at 0.156 ppm / mortality at 0.313 ppm / mortality at 0.63 ppm / mortality at 10 ppm / mortality at 100 ppm: Plutella xylostella, foliar; for mortality at 10 ppm / mortality at 100 ppm: read-out: mortality against diamondback moth; for Mortality (%): parallel test
Excerpt: The test method is spraying. The leaves of cabbage grown in greenhouse were chosen, removed the surface waxy layer and perforated to get 3 cm diameter leaf discs by the hole puncher. The test compounds were sprayed on both sides of the discs by Airbrush according to the designed concentration from low to high dose. The cabbage discs were placed in 6 cm diameter Petri dish with filter paper. Tentest insects (3 instar) were introduced on each treatment after drying. Each treatment set the pure water as CK. The treated discs were placed in a certain condition. After 72 h, the number of surviving insects was investigated and the mortality rates were calculated.

black bean aphid = assay: Test of absorption activity (horsebean seedling, solution poured into cup); type: in vivo; details: Aphis fabae, after 48 h; for mortality at 0.625 µg/mL: 0.625 mg/L; for mortality at 2.5 µg/mL: 2.5 mg/L; for mortality at 10 µg/mL: 10 mg/L
Experimental: The 3 cm horsebean seedling that pre-infested by a certain number of black bean aphids (2 days instar) was chosen and transplanted to a paper cup loaded with fine sand. According to the test, the test compounds were treated to a solution and poured into the cup. After 48 h, the number of surviving insects was investigated and the mortality rates were calculated.

cabbage aphids = assay: Field test against cabbage aphids; type: in vivo
Experimental: The test was carried out in the institute of Vegetables and Flowers Chinese Academy of Agriculture Sciences Nankou base, using cabbages (JINGFENG) as the test plant. The test compounds dosage were 15 g a.i./hm^2 and 10% Cyantraniliprole SC dosage was 30 g a.i./hm^2 which were sprayed evenly to the whole plant using backpack manual sprayer (“MATABI” SUPER GREEN 16) at the spray volume of 750 L/hm^2. Each treatment repeated 4 times, arranged with randomized blocks. 5 spots were chosen from each area using diagonal method, each spot contains 2 cabbages, the 10 cabbages above were investigated in the area. The number of initial cabbage aphids was investigated before spraying. After 1 day, 3 days, 7 days, 14 days, the number of surviving aphids was investigated respectively and the control efficiency were calculated. decline ratio of insect (%)=(insect number before pesticide application−insect number after pesticide application)/(insect number before pesticide application)×100% control efficiency (%)=(treatment area decline ratio of insect−CK area decline ratio of insect)/(100−CK area decline ratio of insect)×100% Calculation Method:
10% Cyantraniliprole SC was bought from DuPont Agricultural Chemicals Ltd., Shanghai.

apple tree aphids = assay: Field test against apple tree aphids; type: in vivo; details: for mortality at 25 µg/mL: dose 25 mg/L; for mortality at 50 µg/mL: dose 50 mg/L
Experimental: The test was carried out in the institute of pomology of CAAS orchard in June 2014, using starkrimson as the test sample, the apple tree aphids were in preliminary stage. The test method is spraying using the stretcher power sprayer (ZL-22-160), each treatment repeated 4 times. The number of initial aphids was investigated before spraying. After 2 days, 7 days, 14 days, the number of surviving aphids was investigated respectively and the control efficiency were calculated. 10% Cyantraniliprole SC was commercial available which was bought from DuPont Agricultural Chemicals Ltd., Shanghai.

army worm = assay: Test against army worm (corn leaf spraying); type: in vivo; details: for Mortality (%): parallel test
Experimental: The test method is spraying. The middle part of fresh corn leaves were chosen and cut into 3 cm sects. The test compounds were sprayed on both sides of the sects by Airbrush according to the designed concentration from low to high dose. The sects were placed in 6 cm diameter Petri dish with filter paper. Ten test insects (3 instar) were introduced on each treatment after drying. Each treatment set the pure water as CK. The treated sects were placed in a certain condition. After 72 h, the number of surviving insects was investigated and the mortality rates were calculated.

diamond back moth = details: disclosed in CN1653051A; cited from earlier work
armyworm = details: disclosed in CN1653051A; cited from earlier work
[1] = 72 h, read-out: mortality against army worm
[2] = 10 ppm, spraying, after 72 h, read-out: mortality against army worm
[3] = 100 ppm, spraying, after 72 h, read-out: mortality against army worm

Row | Structure (SMILES) | mortality at 2.5 ppm (green peach aphid; 48 h) | mortality at 5 ppm (green peach aphid; 48 h) | mortality at 10 ppm (green peach aphid; 48 h) | mortality at 100 ppm (green peach aphid; 48 h) | mortality at 600 ppm (green peach aphid; 48 h) | mortality at 0.156 ppm (diamondback moth; 72 h) | mortality at 0.313 ppm (diamondback moth; 72 h) | mortality at 0.63 ppm (diamondback moth; 72 h) | mortality at 10 ppm (diamondback moth; 72 h) | mortality at 100 ppm (diamondback moth; 72 h) | mortality at 0.625 µg/mL (black bean aphid) | mortality at 2.5 µg/mL (black bean aphid) | mortality at 10 µg/mL (black bean aphid) | mortality at 2.5 ppm (army worm; 72 h) | mortality at 5 ppm (army worm; 72 h) | mortality at 10 ppm (army worm; 72 h) | mortality at 100 ppm (army worm; [1]) | mortality at 600 ppm (green peach aphid; 600 ppm, spraying, after 48 h) | mortality at 10 ppm (diamondback moth; 10 ppm, spraying, after 72 h) | mortality at 100 ppm (diamondback moth; 100 ppm, spraying, after 72 h) | further results
1 | CC(C)(NC(=O)c1cc(Cl)cc(Cl)c1NC(=O)c1cc(Cl)nn1-c1ncccc1Cl)C(N)=O [Compound 1.3] | 100% | 100% | 100% | ≥ 80% | ≥ 80% | 87.5% | 100% | 100% | ≥ 80% | ≥ 80% | 100% | 100% | 100% | 64.3% | 81.2% | 100% | ≥ 80% | – | – | – | Mortality (%) (cabbage aphids; dose 15 g a.i./hm^2, 1 d): 80.78 c %; Mortality (%) (cabbage aphids; dose 15 g a.i./hm^2, 3 d): 87.22 b %; Mortality (%) (cabbage aphids; dose 15 g a.i./hm^2, 7 d): 92.57 ab %; Mortality (%) (cabbage aphids; dose 15 g a.i./hm^2, 14 d): 91.77 ab %; mortality at 25 µg/mL (apple tree aphids; 48 h, 2 day): 78.9%; mortality at 50 µg/mL (apple tree aphids; 48 h, 2 day): 83.5%; mortality at 25 µg/mL (apple tree aphids; 168 h, 7 day): 93.5%; mortality at 50 µg/mL (apple tree aphids; 168 h, 7 day): 96.1%; mortality at 25 µg/mL (apple tree aphids; 336 h, 14 day): 93.1%; mortality at 50 µg/mL (apple tree aphids; 336 h, 14 day): 96.7%; mortality at 10 ppm (army worm; [1]): ≥ 80%
2 | CC(C)(NC(=O)c1cc(Cl)cc(Cl)c1NC(=O)c1cc(Br)nn1-c1ncccc1Cl)C(N)=O [Compound 1.4] | 90.1% | 100% | 100% | ≥ 80% | ≥ 80% | 100% | 100% | 100% | ≥ 80% | ≥ 80% | 100% | 100% | 100% | 50% | 86.6% | 92.8% | ≥ 80% | – | – | – | Mortality (%) (cabbage aphids; dose 15 g a.i./hm^2, 1 d): 84.40 abc %; Mortality (%) (cabbage aphids; dose 15 g a.i./hm^2, 3 d): 91.03 ab %; Mortality (%) (cabbage aphids; dose 15 g a.i./hm^2, 7 d): 95.58 ab %; Mortality (%) (cabbage aphids; dose 15 g a.i./hm^2, 14 d): 91.79 ab %; mortality at 10 ppm (army worm; [1]): ≥ 80%
3 | CC(C)(NC(=O)c1cc(F)cc(Cl)c1NC(=O)c1cc(Br)nn1-c1ncccc1Cl)C(N)=O [Compound 1.8] | – | – | – | – | – | – | – | – | – | – | – | – | – | – | – | – | – | – | – | – | Mortality (%) (green peach aphid; 2.5 ppm, after 48 h): 89.3%; Mortality (%) (green peach aphid; 5 ppm, after 48 h): 100.0%; Mortality (%) (green peach aphid; 10 ppm, after 48 h): 100.0%; Mortality (%) (diamondback moth; 0.156 ppm, after 72 h): 52.1%; Mortality (%) (diamondback moth; 0.313 ppm, after 72 h): 75%; Mortality (%) (diamondback moth; 0.63 ppm, after 72 h): 100%; Mortality (%) (army worm; 2.5 ppm, after 72 h): 43.7%; Mortality (%) (army worm; 5 ppm, after 72 h): 50.0%; Mortality (%) (army worm; 10 ppm, after 72 h): 100%
4 | CC(C)(NC(=O)c1cc(Br)cc(Br)c1NC(=O)c1cc(Br)nn1-c1ncccc1Cl)C(N)=O [Compound 1.10] | 100% | 100% | 100% | ≥ 80% | ≥ 80% | 62.5% | 81.3% | 100% | ≥ 80% | ≥ 80% | – | – | – | 62.5% | 87.5% | 100% | ≥ 80% | – | – | – | –
5 | CC1(C)N=C(c2cc(Cl)cc(Cl)c2NC(=O)c2cc(Cl)nn2-c2ncccc2Cl)NC1=O [Compound 1.20] | – | – | – | – | – | – | – | – | – | – | – | – | – | – | – | – | – | ≥ 80% | ≥ 80% | ≥ 80% | mortality at 100 ppm (green peach aphid; 100 ppm, spraying, after 48 h): ≥ 80%; mortality at 10 ppm (army worm; [2]): ≥ 80%; mortality at 100 ppm (army worm; [3]): ≥ 80%
6 | CC1(C)N=C(c2cc(Cl)cc(Cl)c2NC(=O)c2cc(Br)nn2-c2ncccc2Cl)NC1=O [Compound 1.21] | – | – | – | – | – | – | – | – | – | – | – | – | – | – | – | – | – | ≥ 80% | ≥ 80% | ≥ 80% | mortality at 10 ppm (army worm; [2]): ≥ 80%; mortality at 100 ppm (army worm; [3]): ≥ 80%
7 | CC1(C)N=C(c2cc(Br)cc(Br)c2NC(=O)c2cc(Br)nn2-c2ncccc2Cl)NC1=O [Compound 1.27] | – | – | – | – | – | – | – | – | – | – | – | – | – | – | – | – | – | ≥ 80% | ≥ 80% | ≥ 80% | mortality at 100 ppm (green peach aphid; 100 ppm, spraying, after 48 h): ≥ 80%; mortality at 10 ppm (army worm; [2]): ≥ 80%; mortality at 100 ppm (army worm; [3]): ≥ 80%
8 | CNC(=O)c1cc(C#N)cc(C)c1NC(=O)c1cc(Br)nn1-c1ncccc1Cl [Cyantraniliprole, reference compound] | – | – | – | – | – | – | – | – | – | – | 30% | 54.6% | 100% | – | – | – | – | – | – | – | –
9 | CC(NC(=O)c1cc(Br)cc(Br)c1NC(=O)c1cc(Br)nn1-c1ncccc1Cl)C(N)=O (stereo not shown) [KC1, reference compound] | 0% | 0% | 15.1% | – | – | 0% | 20% | 33.3% | – | – | – | – | – | 0% | 0% | 18% | – | – | – | – | insecticidal activity against diamond back moth (diamond back moth): high activity; insecticidal activity against armyworm (armyworm): high activity
10 | CC(NC(=O)c1cc(F)cc(Cl)c1NC(=O)c1cc(Br)nn1-c1ncccc1Cl)C(N)=O (stereo not shown) [KC2, reference compound] | 0% | 57.6% | 70.4% | – | – | 30% | 45.8% | 63.2% | – | – | – | – | – | 0% | 16.7% | 61.6% | – | – | – | – | insecticidal activity against diamond back moth (diamond back moth): high activity; insecticidal activity against armyworm (armyworm): high activity
